# Experimental data as given in US5045566A, “Novel imidate insecticides” (ICI Americas Inc., priority 1989, dated 1991).
# Key:
# Format in all cases: in vivo
# [1] = test system: Housefly [Musca domestica]; experiment: Housefly contact mortality in dishes (HF), 48 hours; conditions: μg of test compound per 25 female flies
# Method in brief: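 LC50, as μg compound per 25 female flies, comes from dosage-mortality curves with doses from 100 μg downward. Residues were made by evaporating acetone plus 0.01% peanut oil in dishes, onto which 1-2-day-old females were caged; deaths were counted after 48 hours.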
# [2] = test system: Black Bean Aphid [Aphis fabae (Scop.)]; experiment: Black bean aphid spray test on nasturtium (BBA), 48 hours; conditions: percent of test compound in sprayed solution
# Method in brief: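 LC50, given as percent test compound in the sprayed liquid, was calculated from dosage-mortality curves using concentrations from 0.05% downward. Sprays in 50:50 acetone-water went to runoff on ~5 cm nasturtiums carrying 25-50 aphids of mixed ages, one day after infestation. Deaths were counted 48 h later under greenhouse conditions.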
# [3] = test system: Tobacco Budworm [Heliothis virescens (Fabricius)] eggs; experiment: Tobacco budworm eggs (TBW-E); conditions: percent in solution; 2-day old eggs
# Method in brief: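 2-day eggs on paper towel, acetone dip, 0.1% and below; petri dish with larval diet, 78° F. Mortality read after control hatch and larval feeding. LC50 = % compound in solution, from dose-mortality curve.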
# [4] = test system: Cabbage Looper [Trichoplusia ni (Hubner)]; experiment: Cabbage looper leaf dip (CL), 3-5 days; conditions: percent in solution, second-instar larvae
# Method in brief: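 LC50 values, given as percent test compound in solution, were calculated from dosage-mortality curves. Squash cotyledons were immersed 2-3 s in acetone-water (50-50) dilutions starting at 0.1%, dried on a screen, then infested with five second-instar larvae. Mortality was read 3-5 days on.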
# [5] = test system: Aster Leafhopper [Macrosteles fascifrens (Stal)]; experiment: Aster leafhopper on dipped oat seedlings (LH), 48 hours; conditions: percent in solution, adults/nymphs
# Protocol: The compounds in Tables 1 and 2 above were tested for insecticidal activity using the following testing procedures. LC50 values, based on the results of these tests and calculated according to dosage-mortality curves, are expressed in Table 3.
# Aster Leafhopper [Macrosteles fascifrens (Stal)]
# Oat seedlings (Avena sp) were grown in a commercial potting soil in cups. When the plants were approximately 10 cm tall they were thinned to three plants per cup and dipped for 2-3 seconds in 50-50 acetone-water solutions of the test compounds. When the plants had dried, a clear plastic tube was placed over them and the bottom end pressed into the cup. Ten aster leafhopper adults/nymphs were then placed in each tube and the tops of the tubes covered with white organdy cloth. Mortality counts were made after 48 hours. Test concentrations ranged from 0.05% down to that at which 50% mortality occurred. The LC50 values are expressed below in Table 3 under the heading "LH" in terms of the percent of the test compound in the solution.
# [6] = test system: Maize weevil [Sitophilus zeamais (Motschulsky)]; experiment: Maize weevil on dipped corn seeds (MW), 48 hours; conditions: percent in solution, adult weevils
# Method in brief: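 LC50, given as percent of compound in dipping solution, comes from dosage-mortality curves over concentrations descending from 0.01%. Four corn seeds soaked 2-3 s in 50:50 acetone:water solution were dried and held with 10 adult weevils, about 25° C, mortality read after 48 h.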
structure (smiles),measurement,setting,value
CC(C)C(=Nc1ccccc1Br)OCc1cccc(Oc2ccccc2)c1 [Compound 132],LC50 HF,[1],65 µg
same,LC50 BBA,[2],0.0025%
same,LC50 TBW E (eggs),[3],> 0.1%
same,LC50 CL,[4],0.025%
same,LC50 LH,[5],> 0.05%
same,LC50 MW,[6],> 0.01%
CC(C)C(=Nc1ccc(Cl)c(C(F)(F)F)c1)OCc1cccc(Oc2ccc(F)cc2)c1 [Compound 193],LC50 HF,[1],100 µg
same,LC50 TBW E (eggs),[3],> 0.1%
same,LC50 CL,[4],0.00075%
same,LC50 LH,[5],0.001%
same,LC50 MW,[6],> 0.01%
CC(C)C(=Nc1ccc(OC(F)(F)F)cc1)OCc1cccc(Oc2ccccc2)c1 [Compound 70],LC50 HF,[1],< 100 µg
same,LC50 BBA,[2],< 0.05%
same,LC50 TBW E (eggs),[3],0.01%
same,LC50 CL,[4],< 0.1%
same,LC50 LH,[5],> 0.05%
CC(C)C(=Nc1ccc(OC(F)(F)F)cc1)OCc1cccc(Cc2ccccc2)c1 [Compound 538],LC50 HF,[1],75 µg
same,LC50 TBW E (eggs),[3],> 0.1%
same,LC50 CL,[4],> 0.1%
same,LC50 LH,[5],> 0.05%
same,LC50 MW,[6],> 0.01%
CC(C)C(=Nc1ccc(Br)cc1)OCc1cccc(Oc2ccccc2)c1 [Compound 131],LC50 HF,[1],17 µg
same,LC50 BBA,[2],0.003%
same,LC50 TBW E (eggs),[3],> 0.1%
same,LC50 CL,[4],0.0045%
same,LC50 LH,[5],0.005%
CC(C)(Cl)C(=Nc1ccc(C#N)c(Cl)c1)OCc1cccc(Oc2ccccc2)c1 [Compound 108],LC50 HF,[1],44 µg
same,LC50 BBA,[2],0.01%
same,LC50 TBW E (eggs),[3],> 0.1%
same,LC50 CL,[4],0.002%
same,LC50 LH,[5],> 0.01%
CC1(C(=Nc2ccc(Cl)cc2)OCc2cccc(Oc3ccccc3)c2)CC1 [Compound 5],LC50 HF,[1],21 µg
same,LC50 BBA,[2],0.001%
same,LC50 CL,[4],0.005%
same,LC50 LH,[5],> 0.05%
same,LC50 MW,[6],> 0.01%
CC(C)C(=Nc1cccc(C(F)(F)F)c1)OCc1cc(Oc2ccc(F)cc2)ccn1 [Compound 528],LC50 BBA,[2],> 0.05%
same,LC50 TBW E (eggs),[3],> 0.1%
same,LC50 CL,[4],0.0075%
same,LC50 LH,[5],> 0.05%
same,LC50 MW,[6],> 0.01%
CCc1ccc(N=C(OCc2cccc(Oc3ccc(F)cc3)c2)C(C)C)cc1 [Compound 159],LC50 HF,[1],25 µg
same,LC50 BBA,[2],0.001%
same,LC50 TBW E (eggs),[3],0.08%
same,LC50 CL,[4],0.001%
same,LC50 LH,[5],0.0025%
CC(C)C(=Nc1ccc2c(c1)OCO2)OCc1cccc(Oc2ccc(Cl)cc2)n1 [Compound 466],LC50 HF,[1],13 µg
same,LC50 TBW E (eggs),[3],> 0.1%
same,LC50 CL,[4],0.0008%
same,LC50 LH,[5],> 0.05%
same,LC50 MW,[6],0.01%
CC(C)C(=Nc1ccc(Cl)cc1)OC(C)c1cccc(Oc2ccccc2)c1 (centres unmarked) [Compound 457],LC50 HF,[1],> 100 µg
same,LC50 BBA,[2],> 0.05%
same,LC50 TBW E (eggs),[3],> 0.05%
same,LC50 CL,[4],0.009%
same,LC50 LH,[5],> 0.05%
CC(C)C(=Nc1ccc2c(c1)CCC2)OCc1cccc(Oc2ccccc2)c1 [Compound 187],LC50 HF,[1],15 µg
same,LC50 BBA,[2],0.001%
same,LC50 TBW E (eggs),[3],> 0.1%
same,LC50 CL,[4],0.0025%
same,LC50 LH,[5],0.0025%
Cc1ccc(N=C(OCc2cccc(Oc3ccccc3)c2)C(C)C)cc1Cl [Compound 90],LC50 HF,[1],> 100 µg
same,LC50 BBA,[2],0.0003%
same,LC50 TBW E (eggs),[3],0.016%
same,LC50 CL,[4],> 0.1%
same,LC50 LH,[5],0.001%
CC(C)CC(=Nc1cc(Cl)cc(Cl)c1)OCc1cccc(Oc2ccccc2)c1 [Compound 10],LC50 HF,[1],> 100 µg
same,LC50 BBA,[2],0.05%
same,LC50 TBW E (eggs),[3],> 0.1%
same,LC50 CL,[4],0.01%
same,LC50 LH,[5],> 0.05%
CC(C)C(=Nc1ccc2c(c1)OC(C)(C)O2)OCc1ccc(F)c(Oc2ccccc2)c1 [Compound 242],LC50 HF,[1],< 100 µg
same,LC50 BBA,[2],< 0.05%
same,LC50 TBW E (eggs),[3],> 0.1%
same,LC50 CL,[4],0.00025%
same,LC50 LH,[5],> 0.05%
CSc1ccc(Oc2cccc(COC(=Nc3ccc(F)cc3)C(C)C)c2)cc1 [Compound 257],LC50 HF,[1],> 100 µg
same,LC50 BBA,[2],0.05%
same,LC50 TBW E (eggs),[3],> 0.1%
same,LC50 CL,[4],0.008%
same,LC50 LH,[5],> 0.05%
CC(C)C(=Nc1ccc(Cl)cc1)OCc1cccc(Oc2ccc(F)cc2)c1 [Compound 189],LC50 HF,[1],17 µg
same,LC50 TBW E (eggs),[3],0.07%
same,LC50 CL,[4],0.00027%
same,LC50 LH,[5],0.002%
same,LC50 MW,[6],> 0.01%
CCc1cccc(N=C(OCc2cccc(Oc3ccccc3)c2)C(C)C)c1 [Compound 154],LC50 HF,[1],25 µg
same,LC50 BBA,[2],0.002%
same,LC50 TBW E (eggs),[3],0.1%
same,LC50 CL,[4],0.004%
same,LC50 LH,[5],> 0.05%
CCc1ccc(N=C(OCc2cccc(Oc3ccccc3)c2)C(C)C)cc1 [Compound 161],LC50 HF,[1],15 µg
same,LC50 BBA,[2],0.0006%
same,LC50 TBW E (eggs),[3],0.07%
same,LC50 CL,[4],0.0014%
same,LC50 LH,[5],0.002%
Clc1ccc(N=C(OCc2cccc(Oc3ccccc3)c2)C(Cl)Cl)c2ccccc12 [Compound 98],LC50 HF,[1],> 100 µg
same,LC50 BBA,[2],> 0.05%
same,LC50 TBW E (eggs),[3],0.1%
same,LC50 CL,[4],0.016%
same,LC50 LH,[5],> 0.05%
CC(C)C(=Nc1c(F)cc(F)cc1Br)OCc1cccc(Oc2ccccc2)c1 [Compound 129],LC50 HF,[1],> 100 µg
same,LC50 BBA,[2],0.03%
same,LC50 TBW E (eggs),[3],> 0.1%
same,LC50 CL,[4],0.005%
same,LC50 LH,[5],0.01%
CC(C)(C)C(=Nc1ccc(Br)cc1)OCc1cccc(Oc2ccccc2)c1 [Compound 135],LC50 HF,[1],> 100 µg
same,LC50 BBA,[2],> 0.05%
same,LC50 TBW E (eggs),[3],> 0.1%
same,LC50 CL,[4],0.004%
same,LC50 LH,[5],> 0.05%
Fc1ccc(N=C(OCc2cccc(Oc3ccccc3)c2)C(Cl)=C(Cl)Cl)cc1 [Compound 49],LC50 HF,[1],> 100 µg
same,LC50 BBA,[2],0.05%
same,LC50 TBW E (eggs),[3],> 0.05%
same,LC50 CL,[4],0.007%
same,LC50 LH,[5],> 0.05%
Cc1ccc(Oc2cccc(COC(=Nc3ccc(F)c(Cl)c3)C(C)C)c2)cc1 [Compound 225],LC50 HF,[1],> 100 µg
same,LC50 BBA,[2],0.006%
same,LC50 TBW E (eggs),[3],> 0.1%
same,LC50 CL,[4],0.0025%
same,LC50 LH,[5],> 0.05%
Fc1ccc(Oc2cccc(COC(=Nc3ccc(F)c(Cl)c3)C(F)(F)C(F)(F)F)c2)cc1 [Compound 258],LC50 HF,[1],> 100 µg
same,LC50 BBA,[2],0.01%
same,LC50 TBW E (eggs),[3],> 0.1%
same,LC50 CL,[4],0.003%
same,LC50 LH,[5],> 0.05%
CC(C)C(=Nc1c(F)c(F)cc(F)c1F)OCc1cccc(Oc2ccccc2)c1 [Compound 57],LC50 HF,[1],> 100 µg
same,LC50 BBA,[2],0.03%
same,LC50 TBW E (eggs),[3],0.1%
same,LC50 CL,[4],0.004%
same,LC50 LH,[5],0.0005%
CC(C)C(=Nc1ccc(C(F)(F)F)c(Cl)c1)OCc1cccc(Oc2ccccc2)c1 [Compound 83],LC50 HF,[1],> 100 µg
same,LC50 BBA,[2],0.05%
same,LC50 TBW E (eggs),[3],> 0.1%
same,LC50 CL,[4],0.007%
same,LC50 LH,[5],> 0.05%
CC(C)C(=Nc1cc(Cl)c(Cl)c(Cl)c1)OCc1cccc(Oc2ccccc2)c1 [Compound 20],LC50 HF,[1],64 µg
same,LC50 BBA,[2],0.0006%
same,LC50 TBW E (eggs),[3],< 0.1%
same,LC50 CL,[4],0.0025%
same,LC50 LH,[5],0.003%
CC(C)C(=Nc1ccc(F)c(Cl)c1)OCc1cc(Oc2ccc(F)cc2)ccn1 [Compound 529],LC50 BBA,[2],> 0.05%
same,LC50 TBW E (eggs),[3],> 0.1%
same,LC50 CL,[4],> 0.0025%
same,LC50 LH,[5],> 0.05%
same,LC50 MW,[6],> 0.01%
FC(F)(F)C(=Nc1ccc(Cl)cc1)OCc1cccc(Oc2ccccc2)c1 [Compound 35],LC50 HF,[1],15 µg
same,LC50 TBW E (eggs),[3],0.03%
same,LC50 CL,[4],0.008%
same,LC50 LH,[5],> 0.05%
same,LC50 MW,[6],> 0.01%
COCc1c(F)c(F)c(COC(=Nc2ccc(F)c(Cl)c2F)C(C)C)c(F)c1F [Compound 522],LC50 BBA,[2],0.002%
same,LC50 TBW E (eggs),[3],> 0.1%
same,LC50 CL,[4],> 0.1%
same,LC50 LH,[5],0.05%
same,LC50 MW,[6],> 0.01%
CC(C)C(=Nc1c(Cl)cc([N+](=O)[O-])cc1Cl)OCc1cccc(Oc2ccccc2)c1 [Compound 92],LC50 HF,[1],> 100 µg
same,LC50 BBA,[2],> 0.05%
same,LC50 TBW E (eggs),[3],> 0.1%
same,LC50 CL,[4],0.015%
same,LC50 LH,[5],> 0.05%
